Reference: ChEMBL document CHEMBL5500324, “The potential of marine-derived piperazine alkaloids: Sources, structures and bioactivities” (Eur J Med Chem, 2024)
≈ marks a conversion by molar mass, not a printed value.

Key:
PC-3 = test: Cytotoxicity against human PC-3 cells assessed as reduction in cell growth incubated for 48 hrs by CCK-8 assay; assay type: functional, cell-based; settings: PC-3, 48 h
U-937 [1] = test: Cytotoxicity against human U-937 cells assessed as reduction in cell growth incubated for 48 hrs by CCK-8 assay; assay type: functional, cell-based; settings: U-937, 48 h
NCI-H1975 = test: Cytotoxicity against human NCI-H1975 cells assessed as cell growth inhibition by MTT assay; assay type: functional, cell-based
HL-60 [2] = test: Cytotoxicity against human HL-60 cells assessed as cell growth inhibition by MTT assay; assay type: functional, cell-based
A549 [3] = test: Cytotoxicity against human A549 cells assessed as reduction in cell growth by MTT assay; assay type: functional, cell-based
K562 = test: Cytotoxicity against human K562 cells assessed as cell growth inhibition by MTT assay; assay type: functional, cell-based
HCT-116 [4] = test: Cytotoxicity against human HCT-116 cells assessed as reduction in cell growth by MTT assay; assay type: functional, cell-based
[5] = Cytotoxicity against human HaCaT cells incubated for 24 hrs by MTS assay; assay type: toxicity, cell-based
HCT-116 [6] = test: Cytotoxicity against human HCT-116 cells assessed as reduction in cell viability incubated for 48 hrs by Celltiter-Glo assay; assay type: functional, cell-based; settings: HCT-116, 48 h
A549 [7] = test: Cytotoxicity against human A549 cells assessed as reduction in cell viability incubated for 48 hrs by Celltiter-Glo assay; assay type: functional, cell-based; settings: A549, 48 h
HepG2 [8] = test: Antiproliferative activity against human HepG2 cells assessed as reduction in cell viability by CCK-8 assay; assay type: functional, cell-based
U-937 [9] = test: Cytotoxicity against human U-937 cells assessed as inhibition of cell growth; assay type: functional, cell-based
T47D = test: Antiproliferative activity against human T47D cells incubated for 48 hrs by MTT assay; assay type: functional, cell-based
HL-60 [10] = test: Cytotoxicity against human HL-60 cells assessed as reduction in cell growth; assay type: functional, cell-based
A549 [11] = test: Cytotoxicity against human A549 cells assessed as reduction in cell viability incubated for 48 hrs by MTT assay; assay type: functional, cell-based; settings: A549, 48 h
HCT-116 [12] = test: Cytotoxicity against human HCT-116 cells assessed as reduction in cell viability incubated for 48 hrs by MTT assay; assay type: functional, cell-based; settings: HCT-116, 48 h
L1210 = test: Cytotoxicity against mouse L1210 assessed as cell growth inhibition; assay type: functional, cell-based
HeLa [13] = test: Cytotoxicity against human HeLa cells assessed as cell growth inhibition; assay type: functional, cell-based
[14] = Cytotoxicity against human AML1 cells expressing FLT3-ITD mutant assessed as cell viability; assay type: functional, cell-based
SF-268 [15] = test: Cytotoxicity against human SF-268 cells assessed as inhibition of cell growth incubated for 72 hrs by SRB assay; assay type: functional, cell-based; settings: SF-268, 72 h
A549 [16] = test: Cytotoxicity against human A549 cells assessed as inhibition of cell growth incubated for 72 hrs by SRB assay; assay type: functional, cell-based; settings: A549, 72 h
HepG2 [17] = test: Cytotoxicity against human HepG2 cells assessed as inhibition of cell growth incubated for 72 hrs by SRB assay; assay type: functional, cell-based; settings: HepG2, 72 h
MCF7 [18] = test: Cytotoxicity against human MCF7 cells assessed as inhibition of cell growth incubated for 72 hrs by SRB assay; assay type: functional, cell-based; settings: MCF7, 72 h
[19] = Cytotoxicity against human Huh7.5 cells assessed as reduction in cell viability incubated for 72 hrs by CCK-8 assay; assay type: toxicity, cell-based, Huh-7.5
HepG2 [20] = test: Cytotoxicity against human HepG2 cells assessed as reduction in cell growth incubated for 48 hrs by SRB assay; assay type: functional, cell-based; settings: HepG2, 48 h
NCI-H460 = test: Cytotoxicity against human NCI-H460 cells assessed as reduction in cell growth incubated for 48 hrs by SRB assay; assay type: functional, cell-based; settings: NCI-H460, 48 h
HEK293 = test: Cytotoxicity against HEK293 cells assessed as cell growth inhibition; assay type: functional, cell-based; settings: Homo sapiens
MCF7 [21] = test: Cytotoxicity against human MCF7 cells assessed as reduction in cell growth incubated for 48 hrs by SRB assay; assay type: functional, cell-based; settings: MCF7, 48 h
HCT-116 [22] = test: Cytotoxicity against human HCT-116 cells assessed as reduction in cell viability incubated for 24 hrs by MTT assay; assay type: functional, cell-based; settings: HCT-116, 24 h
SF-268 [23] = test: Cytotoxicity against human SF-268 cells assessed as reduction in cell growth incubated for 48 hrs by SRB assay; assay type: functional, cell-based; settings: SF-268, 48 h
RKO = test: Cytotoxicity against human RKO cells assessed as inhibition of cell growth measured after 48 hrs by MTT assay; assay type: functional, cell-based
A549 [24] = test: Antiproliferative activity against human A549 cells assessed as reduction in cell viability incubated for 72 hrs by CCK-8 assay; assay type: functional, cell-based; settings: A549, 72 h
AGS = test: Antiproliferative activity against human AGS cells assessed as reduction in cell viability measured for 48 hrs by Cell-Titer Glo assay; assay type: functional, cell-based
HCT-116 [25] = test: Antiproliferative activity against human HCT-116 cells assessed as reduction in cell growth; assay type: functional, cell-based
MCF7 [26] = test: Antiproliferative activity against human MCF7 cells assessed as reduction in cell viability incubated for 72 hrs by MTT assay; assay type: functional, cell-based; settings: MCF7, 72 h
HeLa [27] = test: Cytotoxicity against human HeLa cells assessed as reduction in cell viability incubated for 24 hrs by CCK-8 assay; assay type: functional, cell-based
A549 [28] = test: Cytotoxicity against human A549 cells assessed as reduction in cell viability incubated for 24 hrs by CCK-8 assay; assay type: functional, cell-based; settings: A549, 24 h

COc1ccc2c3c([nH]c2c1)[C@H](C=C(C)C)N1C(=O)[C@@H]2CCCN2C(=O)[C@]1(O)[C@H]3O
IC50 (PC-3): 6.56 µM | IC50 (U-937 [1]): 1.82 µM

CN1C(=O)[C@]23SSS[C@]1(CO)C(=O)N2[C@H]1Nc2ccccc2C1(C12c4ccccc4N[C@H]1N1C(=O)[C@@]4(CO)SSS[C@]1(C(=O)N4C)[C@H]2O)[C@@H]3O (stereo partly specified)
IC50 (NCI-H1975): 0.8 µM | IC50 (HL-60 [2]): 1.5 µM | IC50 (A549 [3]): 0.7 µM | IC50 (K562): 1 µM | IC50 (HCT-116 [4]): 0.3 µM

CCCCCCCCC[C@@H](CC(=O)NCCCCN)N1CC(=O)N(O)[C@H](Cc2ccccc2)C1=O
IC50 at 24 h [5]: 37.5 µM | IC50 (HCT-116 [6]): 39.5 µM | IC50 (A549 [7]): 37.9 µM

CS[C@@]12CC3=CC=CC[C@H]3N1C(=O)[C@]1(SC)CC3=CC=C[C@H](OC(C)=O)[C@H]3N1C2=O
IC50 (HepG2 [8]): 48 µg/mL (≈ 108 µM)

CC(C)=CCC/C(C)=C/COc1ccc(/C=C2\NC(=O)[C@H](C)N(O)C2=O)cc1
IC50 (U-937 [9]): 11.6 µg/mL (≈ 30.2 µM) | IC50 (T47D): 11.6 µg/mL (≈ 30.2 µM) | IC50 (HL-60 [10]): 11.6 µg/mL (≈ 30.2 µM)

CC(C)/C=c1/[nH]c(=O)/c(=C/c2ccccc2)n(C)c1=O
IC50 (A549 [11]): 89.4 µg/mL (≈ 331 µM) | IC50 (HCT-116 [12]): > 100 µg/mL

C=CC(C)(C)[C@]1(C[C@H]2NC(=O)[C@H]3CCCN3C2=O)C(=O)Nc2c1ccc1c2C=CC(C)(C)O1
IC50 (L1210): 22 µg/mL (≈ 48.9 µM) | IC50 (HeLa [13]): 50 µg/mL (≈ 111 µM)

CC(C)=CCc1[nH]cnc1/C=C1\NC(=O)CNC1=O
IC50 [14]: 0.22 µM

CN1C(=O)[C@H]2CSC3=C(C(=O)c4ccccc4C3=O)N2C[C@@H]1CO
IC50 (SF-268 [15]): 17 µM | IC50 (A549 [16]): 34.4 µM | IC50 (HepG2 [17]): 31.2 µM | IC50 (MCF7 [18]): 25.7 µM

CO[C@H]1CC(=O)[C@@H]2C[C@@]34SS[C@]5(C[C@H]6C(=O)C[C@H](OC)[C@H](O)[C@H]6N5C3=O)C(=O)N4[C@@H]2[C@H]1O
IC50 at 72 h [19]: 4.88 µM

C=c1c(=O)n2c(cc3ccccc32)c(=O)n1C
IC50 (HepG2 [20]): 2.29 µM | IC50 (NCI-H460): 12.3 µM | IC50 (HEK293): 30.1 µM | IC50 (MCF7 [21]): 4.67 µM | IC50 (HCT-116 [22]): 10.3 µM | IC50 (SF-268 [23]): 3.3 µM | IC50 (RKO): 33.6 µM

CC(=O)O[C@H]1C=COC=C2C[C@@]34SS[C@]5(CC6=COC=C[C@H](OC(C)=O)[C@H]6N5C3=O)C(=O)N4[C@@H]21
IC50 (A549 [24]): 23 µM | IC50 (AGS): 32 µM | IC50 (HCT-116 [25]): 21 µM | IC50 (MCF7 [26]): 36 µM

CC1(C)C=Cc2c(ccc3c2NC(=O)[C@@]32C[C@@]34NC(=O)[C@]5(CCCN5C3=O)C[C@H]4C2(C)C)O1 [NOTOAMIDE B]
IC50 (L1210): 36 µg/mL (≈ 80.4 µM) | IC50 (HeLa [13]): 52 µg/mL (≈ 116 µM)

CC(C)=CCC/C(C)=C/COc1ccc(/C=C2/NC(=O)[C@H](C)N(O)C2=O)cc1
IC50 (U-937 [9]): 11.6 µg/mL (≈ 30.2 µM) | IC50 (T47D): 11.6 µg/mL (≈ 30.2 µM) | IC50 (HL-60 [10]): 11.6 µg/mL (≈ 30.2 µM)

COc1ccc2c3c(n(CC=C(C)C)c2c1)[C@H](C=C(C)C)N1C(=O)[C@@H]2CCCN2C(=O)[C@]1(O)[C@H]3O
IC50 (PC-3): 43.4 µM | IC50 (U-937 [1]): 14.1 µM

CC[C@H](C)[C@]1(O)NC(=O)[C@@H](Cc2ccccc2)N2C(=O)C3=C(NC21)OC=CC=C3 (stereo partly specified)
IC50 (HeLa [27]): 114 µM | IC50 (A549 [28]): 61 µM

CC(=O)O[C@H]1C=CC=C2C[C@@]34SS[C@]5(CC6=COC=C[C@H](OC(C)=O)[C@H]6N5C3=O)C(=O)N4[C@@H]21
IC50 (A549 [24]): 12 µM | IC50 (AGS): 12 µM | IC50 (HCT-116 [25]): 13.8 µM | IC50 (MCF7 [26]): 10 µM

CS[C@@]12CC3=CC=C[C@H](OC(C)=O)[C@H]3N1C(=O)[C@]1(SC)CC3=CC=C[C@H](OC(C)=O)[C@H]3N1C2=O
IC50 (HepG2 [8]): 42 µg/mL (≈ 83.6 µM)

COc1ccc(C[C@H]2NC(=O)[C@@H](CC(C)C)NC2=O)cc1O
IC50 (A549 [11]): 35.4 µg/mL (≈ 116 µM) | IC50 (HCT-116 [12]): 75.4 µg/mL (≈ 246 µM)
